Structures are written as SMILES.

What is called melting point is the temperature of the solid-liquid transition.

`COc1cc2[nH]c(=O)cc(C(F)(F)F)c2cc1NC(C)=O` displayed a melting point of 280 °C.

Take `COc1c(C2CCN(CCCCNC(=O)c3sc(-c4ccc(C(F)(F)F)cc4)nc3CO)CC2)ccc2c1CCCC2`: the melting point was in the range of 179 to 180 °C.

The compound `C=CCCn1c(C(=O)c2cc(C)cc(C#N)c2)c(C(C)C)c(=O)[nH]c1=O` returned a melting point of 133 to 134 °C.

On to `COC(=NS(=O)(=O)c1nc(-c2ccccc2Cl)ns1)C(C)C`, for which the melting point lay in the range of 75 to 76 °C.

Compound `CN(C)C=C1CC(=O)c2ccccc2NC1=O` yielded a melting point of 203 to 205 °C.

Turning to `CC12CC(F)C3(Br)C(CCC4=CC(=O)CCC43C)C1CCC2=O` (configuration not stated), the melting point is 165 to 166 °C.

`COc1cc2c(CCNC(C)=O)c[nH]c2cc1F` registered a melting point of 158 to 159 °C.

As for `CC(C)(CON=Cc1ccccc1Cl)C(=O)O`, the melting point lay within 78 to 80 °C.

Turning to `Cn1c(N=C=O)c(-c2ccccc2)c2cc(Cl)ccc21`, the melting point amounted to 150 °C.

For `CCON=C(CC)C1=C(O)CC(c2ccc(Oc3ccc(S(C)(=O)=O)cc3)cc2)CC1=O` (configuration not stated), the melting point lay in the range of 155 to 157 °C.

Take `CNc1c2c(nc3ccc([N+](=O)[O-])cc13)CCCC2=O`: the melting point was 208 °C.

Compound `O=C1[C@H]2C[C@H](F)CN2C(=O)N1c1cc(NS(=O)(=O)CCl)c(Cl)cc1F` yielded a melting point of 147 to 151 °C.

`COCCCNc1nc2cc(Cl)c(Cl)cc2nc1-c1ccccn1` displayed a melting point of 99.5 to 100 °C.

The compound `CCOC(=O)C(O)(CC(C)(C)c1ccc(OC)cc1)C(F)(F)F` (configuration not stated) displayed a melting point of 79 to 80 °C.

The compound `O=C(NC[C@H](O)[C@@H](O)[C@H](O)C(=O)CO)OCc1ccccc1` gave a melting point of 107 to 111 °C.

In the case of `CCCCCCCCCCCCCCCCCCOC[C@@H]1CO[C@@H](COC(=O)Nc2ccncc2)C1` (relative stereo), the melting point was in the range of 118 to 123 °C.

Take `COc1ccc(-n2c(-c3sc(Nc4ccc(Cl)cc4)nc3-c3ccccc3)nc3ccccc3c2=O)cc1`: the melting point was 220 to 221 °C.

`COC(=O)c1ccc2ccc(S(=O)(=O)N(Cc3ccccc3)Cc3ccccc3)cc2c1` came in with a melting point of 141 to 142 °C.

In turn, `Cc1nc(O)cc(C(F)(F)F)n1` registered a melting point of 141 to 143 °C.

Take `CC(=O)c1c(F)cccc1N1CCN(C(=O)OC(C)(C)C)CC1`: the melting point stood at 88 °C.

As for `CCOC(=O)c1c(N2CCN(C=O)CC2)c2cc(F)ccc2n(Cc2ccccc2)c1=O`, the melting point came out at 206 °C.

`Cc1ccc(C(=O)C2=C(O)C(=O)N(c3ccc(C)nn3)C2c2ccc(OC(F)(F)F)cc2)cc1` (configuration not stated) had a melting point of 215 °C.

`COCc1cccc(-c2coc3ccc(-c4nnc(C)o4)cc23)c1` registered a melting point of 111 to 112 °C.

Compound `O=C(Cn1cc(Cl)cnc1=O)c1ccc([N+](=O)[O-])cc1` displayed a melting point of 232 to 236 °C.

`COC(=O)c1c(C)c(-c2cccnc2)n2c1CSC2` had a melting point of 91 °C.

`CCC(NC(=NC#N)Nc1cccnc1)c1ccccc1` (configuration not stated) gave a melting point of 155 to 156 °C.

Compound `Cc1c(C#N)ccc(N)c1C#N` yielded a melting point of 209 to 210 °C.

For the compound `Nc1ccc(CS(=O)(=O)NCCc2ccccc2)cc1`, the melting point lay within 123 to 125 °C.

`OC(C=Cc1ccco1)c1cnc2sc3c(n12)CCCCC3` (configuration not stated) came in with a melting point of 177 to 180 °C.

Compound `CN(Cc1ccc2c(Br)c(OCC#N)ccc2c1)C(=O)c1cn(C)c2ccccc12` yielded a melting point of 148 to 150 °C.

As for `COc1ccccc1CNC(=O)C(=O)NCCc1ccccn1`, the melting point is 118 to 119 °C.

`O=C(O)CCCCCCCn1nc(-c2ccccc2)c(-c2ccccc2)nc1=O` displayed a melting point of 111 to 113 °C.

Consider `COc1ccc(S(=O)(=O)N2CCCC2)cc1`, for which the melting point lay within 88 to 89 °C.

In turn, `COc1ccc(Cn2c(-c3cc(OC)c(OC)c(OC)c3)nc3ccccc32)cc1` yielded a melting point of 110 °C.

As for `COc1ccc(NS(=O)(=O)c2ccc(N3CCC(=O)CC3)cc2)cc1OC`, the melting point was in the range of 50 to 56 °C.

In turn, `CC1(C)Cc2sc(C(=O)O)cc2C1=O` yielded a melting point of 124 to 125 °C.

The compound `O=C(NCCO[N+](=O)[O-])c1csc(C(=O)NCCO[N+](=O)[O-])n1` displayed a melting point of 136 to 138 °C.

`CS(=O)(=O)On1c(C(F)(F)F)nc2ncc(Cl)cc21` gave a melting point of 137 °C.

For the compound `COc1cc(Nc2c(C#N)cnc3cc(OCCOCCN4CCNCC4)c(OC)cc23)c(Cl)cc1Cl`, the melting point was in the range of 88 to 90 °C.

With `CCCCCCC(Oc1ccc(C2=CCCCCC2)cc1)C(=O)O` (configuration not stated), the melting point fell in the range of 59 to 60 °C.

Regarding `Cc1cccc(N2CCN(c3ccc(S)nn3)CC2)c1`, the melting point worked out at 174 °C.

Take `COc1ccc2cc(C(O)=CC(C)=O)cc(F)c2c1`: the melting point lay in the range of 107 to 108 °C.

`O=C1c2cccc(Sc3ccccc3)c2C(=O)c2cccc(Nc3cccc([N+](=O)[O-])c3)c21` yielded a melting point of 246 °C.

Compound `CCOP(=O)(CCOCn1cnc2c(OC)ncnc21)OCC` displayed a melting point of 140 to 141 °C.

In turn, `C=CCC(O)(CCCc1ccc(Cl)cc1)c1ccc(OCc2ccc3ccccc3n2)cc1` (configuration not stated) returned a melting point of 87 to 88 °C.

Consider `CCC(Oc1ccc2ccccc2c1)C(=O)OC1CC(O)C=C2C=CC(C)C(CCC3CC(O)CC(=O)O3)C21` (mixture of isomers), for which the melting point is 124 to 127 °C.

Consider `CC(C)c1ccc(C2c3cc(NCc4ccccc4)ccc3OC2(C)C)cc1` (configuration not stated), for which the melting point is 85 to 86 °C.

`Fc1c(F)c(F)c(CSc2nc3ccccc3[nH]2)c(F)c1F` yielded a melting point of 189 to 196 °C.

With `C=CC[C@H](C(N)=O)[C@@H](CC(C)C)C(=O)NC1N=C(N(C)c2ccccc2)c2ccccc2N(C)C1=O` (some centres not stated), the melting point was in the range of 267 to 268 °C.

On to `Cc1nc(N)n(C)c(=O)c1CCN1CCC(Cc2nc3ccccc3n2Cc2ccc(F)cc2)CC1`, for which the melting point is 147 °C.

With `C/C(=N\O)c1cccc(-c2nc3sccn3c2-c2ccnc(N[C@@H]3CCCN(S(=O)(=O)c4ccc(Cl)cc4)C3)n2)c1`, the melting point fell in the range of 156 to 158 °C.

`CNc1sc(-c2cccnc2)nc1C` registered a melting point of 84 to 87 °C.

Turning to `Cc1ccc(S(=O)(=O)NCCCN(C)S(=O)(=O)c2ccc(C)cc2)cc1`, the melting point came to 93 °C.

`C=CCn1cc2c(C3C(=O)Nc4ccc(C#N)cc43)ncnc2n1` (configuration not stated) returned a melting point of more than 300 °C.

The compound `FC(F)(F)c1cc(CO[C@H]2CCCN(Cc3ncncn3)[C@H]2c2ccccc2)cc(C(F)(F)F)c1` showed a melting point of 117 to 119 °C.

Compound `Cc1cc(=O)n2cccc(OCc3ccccc3C(F)(F)F)c2n1` came in with a melting point of 130 to 132 °C.

In turn, `O=C(CC(C(=O)O)c1ccccc1)Nc1cc(Cc2n[nH]c(=O)c3ccccc23)ccc1F` (configuration not stated) registered a melting point of 180 to 183 °C.

In the case of `COc1ccc(CC2CCN(C(=O)NC(=O)c3ccc(O)cc3)CC2)cc1`, the melting point is 190 °C.

On to `CCCCCCCC(=O)OCC(COC(=O)CCCCCCC)OCn1cnc2c(=O)[nH]c(N)nc21`, for which the melting point lay in the range of 165 to 166 °C.

The compound `O=C(C(=Cc1cccc(C(F)(F)F)c1)C(=O)C1CC1)C1CC1` returned a melting point of 56 to 58 °C.

Turning to `CCONC(=O)c1nc(-c2ccc(Cl)c(OC)c2F)cc(N)c1Cl`, the melting point is 192 to 195 °C.

Take `COc1ccc(Cn2c(=O)n([C@H]3CC[C@H](O)CC3)c3ccc(C(N)=O)cc32)cc1Cl`: the melting point is 292 °C.

Take `Cc1ccc(S(=O)(=O)NC(=O)OCCc2ccc(-n3c(CCCN4CCCC4=O)nc4cc(C(F)(F)F)c(Cl)cc43)cc2)cc1`: the melting point was 85 to 90 °C.

Compound `NS(=O)(=O)c1ccc2c(c1)C(O)CCC2` (configuration not stated) returned a melting point of 137 to 138 °C.

`CC(C)n1c(=O)cc(C(F)(F)F)[nH]c1=O` yielded a melting point of 127 to 129 °C.

For the compound `CCOC(=O)Nc1cc(COC(=O)Oc2ccc(N(CCCl)CCCl)cc2)cc(Nc2c3ccccc3nc3ccccc23)c1`, the melting point lay in the range of 131 to 133 °C.

As to `CC(=O)n1c(=O)sc2c(Cl)cccc21`, the melting point was 74 °C.

Turning to `COCCCNC(=O)c1cnn(C)c1C(=O)Nc1ccn2nc(-c3ccccc3)nc2c1`, the melting point is 191 to 193 °C.

`O=C(c1ccc(-n2cccn2)nc1Cl)N1Cc2cccn2Cc2ccccc21` returned a melting point of 133 to 135 °C.

Compound `CC(=O)Nc1cnc2ccsc2c1` yielded a melting point of 192 to 194 °C.

Take `CCOC(=O)Cc1ccc(-c2nc(COc3ccc(COc4nn(-c5ccccc5)cc4/C=C/c4coc(CC)n4)cc3OC)c(C)o2)cc1`: the melting point is 155 to 157 °C.

As for `Cc1nn(-c2cc(OC(C)C)c(Cl)cc2Cl)c(=O)[nH]c1=O`, the melting point was 163 to 164 °C.

`COc1ccc2[nH]c(C(=O)Nc3cc(NC(=O)OCc4ccccc4)c4ccccc4c3CCOC(C)=O)cc2c1` had a melting point of 98 to 110 °C.

As for `CCCc1c(COc2ccc(-c3nnn[nH]3)cc2)ccc(C(C)=O)c1O`, the melting point was in the range of 203 to 205 °C.

Turning to `COc1ccc(O)c(C(=O)c2oc3ccc(Cl)cc3c2N)c1`, the melting point was 202 to 205 °C.

The compound `CCCc1cc(O)ccc1-c1noc2cc(O)ccc12` gave a melting point of 189 to 191 °C.

`COc1ccc(C=C2c3ccccc3C(=NOCC(=O)N3CCC(CO[N+](=O)[O-])CC3)c3ccccc32)cc1O` registered a melting point of 143 to 145 °C.

As for `O=C1CCn2c1c(Sc1ccccc1)c1ccccc12`, the melting point was 179 to 181 °C.

Compound `CC(=O)NC(COc1ccccc1)C(=O)O` (configuration not stated) displayed a melting point of 90 to 92 °C.

As to `CC(C#N)=C1CCN(c2ccc(N3CC(COc4ccon4)OC3=O)cc2F)CC1` (configuration not stated), the melting point was 137 to 138 °C.

As for `CCO/N=C(\C)[C@H]1CC[C@H]2[C@@H]3CC=C4C[C@@H](O)CC[C@]4(C)[C@H]3CC[C@]12C`, the melting point is 119 to 121 °C.

`COc1ccc2c(=O)c(CSC)cn(C)c2c1` came in with a melting point of 135 to 136 °C.

Take `CC(=O)OC1CN=C(C)NC1` (configuration not stated): the melting point was 141 to 146 °C.

For `COc1ccc(Cl)cc1C(=O)NCCc1ccc(-c2ccc(Cl)cc2)c(S(N)(=O)=O)c1`, the melting point was found to be 185 °C.

The compound `CCNC(=O)Nc1cccc(-c2cccc(OC)c2)c1` had a melting point of 152 to 154 °C.

As to `CC(=NO)C(C)(C)NCC(Cn1ccnc1[N+](=O)[O-])ONC(C)(C)C(C)=NO` (configuration not stated), the melting point lay within 170 to 171 °C.

For the compound `N#CN=C(NCCSCc1nccs1)NCCSCc1nccs1`, the melting point fell in the range of 66 to 68 °C.

These data come from a melting point compilation (Tetko et al.; mined from patent text by program, amines drawn as free bases though some values may be those of a salt).
